Results on eight compounds are retold here after ChEMBL document CHEMBL3603732, “Synthesis, biological evaluation and molecular modeling of new tetrahydroacridine derivatives as potential multifunctional agents for the treatment of Alzheimer's disease” (Bioorg Med Chem, 2015).

For orientation: IC50 means the concentration needed to halve the response being measured.

The target of series [1] is Acetylcholinesterase (Electrophorus electricus, UniProt O42275).
Description: Inhibition of electric eel AChE using ATC iodide substrate by Ellman's assay
The test system of series [2] is acetylcholinesterase. Kind of series: Selectivity index, ratio of IC50 for cytotoxic activity against human A549 cells to IC50 for acetylcholinesterase in human erythrocytes. The format is toxicity, cell-based. The note with it: read-out: Ratio IC50.
Series [3] deals with T1, Acetylcholinesterase (Homo sapiens, UniProt P22303). In words: Inhibition of AChE (unknown origin) assessed as enzyme-mediated Amyloid beta peptide (1 to 42) aggregation incubated for 5 hrs by thioflavin-T based fluorometric assay.
Series [4] can be described thus: Cytotoxic activity against human A549 cells assessed as cell viability at 100 nM incubated for 48 hrs by WST1 assay. Type of series: cell-based. To be noted: read-out: Activity. In general terms: Tetrazolium assays rely on reduction of a dye to a coloured formazan, in cell work by metabolically active cells.
The next series has as its system A549. In words: Cytotoxic activity against human A549 cells assessed as reduction in cell viability incubated for 48 hrs by WST1 assay. The format is cell-based. The note with it: A549, 48 h.
Series [5] concerns the target T1, Acetylcholinesterase. In words: biochemical.
Description: Inhibition of acetylcholinesterase in human erythrocytes using acetylthiocholine iodide substrate by spectrophotometric Ellman's method
The next series deals with Cholinesterase (Equus caballus, UniProt P81908).
Cholinesterase, sequence (P81908 whole entry): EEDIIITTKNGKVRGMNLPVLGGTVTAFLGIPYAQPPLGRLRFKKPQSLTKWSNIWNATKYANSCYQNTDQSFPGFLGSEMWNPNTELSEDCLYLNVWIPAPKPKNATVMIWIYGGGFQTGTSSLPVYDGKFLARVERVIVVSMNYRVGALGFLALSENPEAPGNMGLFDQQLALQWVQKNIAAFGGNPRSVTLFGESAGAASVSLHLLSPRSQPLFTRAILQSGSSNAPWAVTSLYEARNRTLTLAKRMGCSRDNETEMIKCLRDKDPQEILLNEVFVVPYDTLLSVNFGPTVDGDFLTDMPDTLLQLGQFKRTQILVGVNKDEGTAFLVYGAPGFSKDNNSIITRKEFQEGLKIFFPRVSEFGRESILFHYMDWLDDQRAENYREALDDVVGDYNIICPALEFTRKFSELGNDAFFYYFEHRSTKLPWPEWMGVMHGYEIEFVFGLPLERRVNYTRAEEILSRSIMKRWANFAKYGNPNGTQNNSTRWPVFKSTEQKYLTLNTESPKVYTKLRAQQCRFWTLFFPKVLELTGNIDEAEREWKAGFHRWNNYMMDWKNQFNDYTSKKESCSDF

T1 sequence (P22303 whole entry): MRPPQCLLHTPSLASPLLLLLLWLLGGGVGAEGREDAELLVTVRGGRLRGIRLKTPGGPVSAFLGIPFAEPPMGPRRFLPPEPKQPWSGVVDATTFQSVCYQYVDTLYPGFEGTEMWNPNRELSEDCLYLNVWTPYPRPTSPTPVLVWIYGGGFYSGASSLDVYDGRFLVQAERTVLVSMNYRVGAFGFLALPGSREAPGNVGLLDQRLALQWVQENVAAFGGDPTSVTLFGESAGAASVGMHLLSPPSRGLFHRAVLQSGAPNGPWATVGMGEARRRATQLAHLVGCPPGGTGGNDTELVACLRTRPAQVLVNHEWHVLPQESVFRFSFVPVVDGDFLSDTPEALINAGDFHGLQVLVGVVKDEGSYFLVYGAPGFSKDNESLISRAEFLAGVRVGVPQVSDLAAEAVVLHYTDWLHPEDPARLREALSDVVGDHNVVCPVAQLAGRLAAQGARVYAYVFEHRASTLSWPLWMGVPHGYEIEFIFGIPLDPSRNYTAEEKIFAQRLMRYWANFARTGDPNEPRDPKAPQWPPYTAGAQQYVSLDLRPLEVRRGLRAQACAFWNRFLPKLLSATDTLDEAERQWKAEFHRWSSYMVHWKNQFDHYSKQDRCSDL
Acetylcholinesterase (Electrophorus electricus, UniProt O42275), sequence (O42275 whole entry): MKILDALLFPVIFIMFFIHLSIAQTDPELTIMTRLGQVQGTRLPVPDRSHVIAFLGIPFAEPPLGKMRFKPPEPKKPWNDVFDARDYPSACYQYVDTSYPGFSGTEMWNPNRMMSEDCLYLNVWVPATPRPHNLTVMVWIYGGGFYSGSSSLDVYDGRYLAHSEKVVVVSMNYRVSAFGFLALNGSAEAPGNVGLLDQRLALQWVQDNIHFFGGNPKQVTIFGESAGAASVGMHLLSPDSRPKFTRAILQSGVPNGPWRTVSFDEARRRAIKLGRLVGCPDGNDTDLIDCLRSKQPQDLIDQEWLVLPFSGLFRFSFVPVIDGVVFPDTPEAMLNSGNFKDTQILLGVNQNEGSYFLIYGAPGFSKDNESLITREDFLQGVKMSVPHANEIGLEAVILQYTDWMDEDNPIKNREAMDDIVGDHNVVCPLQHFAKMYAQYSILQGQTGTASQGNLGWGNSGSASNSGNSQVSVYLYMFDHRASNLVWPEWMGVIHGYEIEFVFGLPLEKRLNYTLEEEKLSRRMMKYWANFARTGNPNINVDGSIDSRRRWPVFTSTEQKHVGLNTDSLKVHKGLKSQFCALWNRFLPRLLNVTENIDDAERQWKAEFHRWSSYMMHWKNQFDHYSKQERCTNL

Consider `CN(C)c1ccc(C(=O)NCCNc2c3c(nc4ccccc24)CCCC3)cc1`, for which the IC50 came to 0.4 nM against Acetylcholinesterase [1]; 12100 nM at Acetylcholinesterase [3]; 39100 nM with A549; 142 nM against Acetylcholinesterase [5]; 0.5 nM on Cholinesterase. For the same compound, the selectivity ratio in the series on acetylcholinesterase [2] is 275. In addition, in series [4], the viability at 48 h, 0.1 µM was found to be 93.7%.

For `CN(C)c1ccc(C(=O)NCCCNc2c3c(nc4ccccc24)CCCC3)cc1`, the concentration for half-maximal inhibition (IC50) at Acetylcholinesterase [1] turned out to be 200 nM; with A549, 46300 nM; on Acetylcholinesterase [5] it was 19 nM; at Cholinesterase, 73.3 nM. The selectivity ratio with acetylcholinesterase [2] was determined as 2500. For the same compound, the viability at 48 h, 0.1 µM in series [4] came out at 91.3%.

On to `CN(C)c1ccc(C(=O)NCCCCNc2c3c(nc4ccccc24)CCCC3)cc1`, for which the 50% inhibitory concentration (IC50) came out at 200 nM at Acetylcholinesterase [1], 295 nM against Acetylcholinesterase [5] and 7 nM at Cholinesterase.

Consider `CN(C)c1ccc(C(=O)NCCCCCNc2c3c(nc4ccccc24)CCCC3)cc1`, for which the IC50 against Acetylcholinesterase [1] was determined as 86.7 nM; on Acetylcholinesterase [5] it was 357 nM; against Cholinesterase, 3.7 nM.

For `CN(C)c1ccc(C(=O)NCCCCCCNc2c3c(nc4ccccc24)CCCC3)cc1`, the IC50 against Acetylcholinesterase [1] stood at 0.6 nM; against Acetylcholinesterase [5] it was 64 nM; against Cholinesterase, 1.1 nM.

With `CN(C)c1ccc(C(=O)NCCCCCCCNc2c3c(nc4ccccc24)CCCC3)cc1`, the IC50 on Acetylcholinesterase [1] was determined as 167 nM; against Acetylcholinesterase [5], 75 nM; against Cholinesterase, 210 nM.

For `CN(C)c1ccc(C(=O)NCCCCCCCCNc2c3c(nc4ccccc24)CCCC3)cc1`, the IC50 against Acetylcholinesterase [1] stood at 0.5 nM; at Acetylcholinesterase [5] it was 77 nM; against Cholinesterase it was 0.7 nM.

In the case of `CN(C)c1ccc(C(=O)NCCCCCCCCCNc2c3c(nc4ccccc24)CCCC3)cc1`, the figures for the IC50 at Acetylcholinesterase [1], on Acetylcholinesterase [5] and on Cholinesterase were 0.5 nM, 125 nM and 0.7 nM, respectively.
